Source: the supplement of paper PMC10307832

Columns and labels:
Experiment in all cases: relative viability (nuclei count vs DMSO), 5 days (fraction); higher = more cells survive
ALW-II-49-7 + Bortezomib = compound: Cc1ccc(C(=O)Nc2cccc(C(F)(F)F)c2)cc1Nc1cncc(C(N)=O)c1 [ALW-II-49-7] + CC(C)C[C@H](NC(=O)[C@H](Cc1ccccc1)NC(=O)c1cnccn1)B(O)O [Bortezomib] (partner 0.002 µM)
Summary of the method: (§1)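 Lung cancer cell lines in 1536-well plates got either a single drug or a fixed anchor-drug dose together with five library-drug doses (not always all listed) in √10 steps, by pin tool, on the day after seeding. Nuclei were counted after 5 days, and relative viability is the treated-to-vehicle ratio of nuclei counts. Values are medians of duplicate plates.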

XMD13-2 + Alpelisib = compound: C1CC1C(=O)NC2=NNC3=C2C=CC(=C3)C4=CC(=CC=C4)C(=O)NC5CC5 [XMD13-2] + Cc1nc(NC(=O)N2CCC[C@H]2C(N)=O)sc1-c1ccnc(C(C)(C)C(F)(F)F)c1 [Alpelisib] (partner 2 µM)
Summary of the method: as §1

XMD13-2 + Olaparib = compound: C1CC1C(=O)NC2=NNC3=C2C=CC(=C3)C4=CC(=CC=C4)C(=O)NC5CC5 [XMD13-2] + O=C(c1cc(Cc2n[nH]c(=O)c3ccccc23)ccc1F)N1CCN(C(=O)C2CC2)CC1 [Olaparib] (partner 8 µM)
Summary of the method: as §1

Dasatinib + Pemetrexed = compound: Cc1nc(Nc2ncc(C(=O)Nc3c(C)cccc3Cl)s2)cc(N2CCN(CCO)CC2)n1 [Dasatinib] + Nc1nc2[nH]cc(CCc3ccc(C(=O)N[C@@H](CCC(=O)O)C(=O)O)cc3)c2c(=O)[nH]1 [Pemetrexed] (partner 0.2 µM)
Summary of the method: as §1

Cell Line	relative viability (ALW-II-49-7 + Bortezomib; first compound 0.08 µM)	relative viability (ALW-II-49-7 + Bortezomib; first compound 0.253 µM)	relative viability (ALW-II-49-7 + Bortezomib; first compound 0.8 µM)	relative viability (ALW-II-49-7 + Bortezomib; first compound 8 µM)	relative viability (XMD13-2 + Alpelisib; first compound 0.05 µM)	relative viability (XMD13-2 + Alpelisib; first compound 0.1581 µM)	relative viability (XMD13-2 + Alpelisib; first compound 0.5 µM)	relative viability (XMD13-2 + Alpelisib; first compound 1.581 µM)	relative viability (XMD13-2 + Alpelisib; first compound 5 µM)	relative viability (XMD13-2 + Olaparib; first compound 0.05 µM)	relative viability (XMD13-2 + Olaparib; first compound 0.1581 µM)	relative viability (XMD13-2 + Olaparib; first compound 0.5 µM)	relative viability (XMD13-2 + Olaparib; first compound 1.581 µM)	relative viability (XMD13-2 + Olaparib; first compound 5 µM)	relative viability (Dasatinib + Pemetrexed; first compound 0.005 µM)	relative viability (Dasatinib + Pemetrexed; first compound 0.01581 µM)	relative viability (Dasatinib + Pemetrexed; first compound 0.05 µM)	relative viability (Dasatinib + Pemetrexed; first compound 0.1581 µM)	relative viability (Dasatinib + Pemetrexed; first compound 0.5 µM)	relative viability (ALW-II-49-7 + Bortezomib; first compound 2.53 µM)
HCC-78	0.463	0.434	0.405	0.491	0.392	0.338	0.327	0.304	0.352	0.895	0.781	0.812	0.667	0.733	0.913	0.894	0.936	0.899	0.76	
HCC-366	1.1	0.578	1.02	1.13	0.61	0.31	0.334	0.446	0.443	0.448	0.328	0.444	0.355	0.358	0.173	0.147	0.166	0.177	0.114	1.14
HCC-827	1.13	1.03	1.03	1.03	1.01	0.917	1.01	0.947	0.528	0.722	0.661	0.575	0.609	0.421	0.253	0.251	0.256	0.239	0.133	1.1
HOP-62	0.852	1.06	1.02	0.965	0.848	0.516	1.03	1	0.664	0.307	0.697	0.391		0.489	0.284	0.279	0.352	0.326	0.274	0.369
IA-LM	1.12	0.621	0.509	0.161	0.86	0.962	0.766	0.767	0.901	0.832	0.903	0.787	0.707	0.635						0.217
LK-2					1.33	0.998	0.98	1.04	1.02	0.831	0.911	0.807	0.642	0.668	0.286		0.201	0.128	0.202	
NCI-H358					1.06	0.774	0.843	0.822	0.529	0.72	0.618	0.667	0.718	0.61	0.16	0.176	0.143	0.151	0.129	
NCI-H522										0.632	0.7	0.618	0.473	0.65	1.04	1.03	0.914	0.706	0.681	
NCI-H727	0.678	1.09	0.67	0.787	0.549	0.423	0.527	0.51	0.55	0.679	0.711	0.683	0.74	0.647						0.895
NCI-H1299	1.03	1.02	1.02	0.853	1.08	1.08	1.09	1.08	1.09	0.953	0.991	0.959	0.972	1						0.98
NCI-H1395					1.3	1.07	0.976	0.984	1.1	0.48	0.493	0.46	0.477	0.504	0.987	1.01	0.603	0.369	0.368	
NCI-H1563	0.922	0.885	0.877	0.753	1.02	1	0.941	0.894	0.985						0.684	0.625	0.487	0.458	0.4	0.842
NCI-H1648										0.983		0.841	0.762	0.509	0.454	0.716	0.936	0.699	0.239	
NCI-H1650	0.203	0.218	0.218	0.206						0.78	0.903	0.809	0.795	0.827	0.341	0.38	0.287	0.285	0.268	0.198
NCI-H1703	0.287	0.348	0.298	0.167	0.356	0.405	0.292	0.279	0.406	0.503	0.417	0.38		0.372						0.278
NCI-H1793					0.797	0.835	0.686	0.732	0.897	1.23	0.812	0.95	0.927	0.983	0.609	0.503	0.556	0.424	0.488	
NCI-H1944					1.02	0.85	0.889	0.939	0.778	0.454	0.402	0.408	0.55	0.414	0.573	0.583	0.49	0.234	0.158	
NCI-H2170					0.97	0.77	0.871	0.777	0.696	0.663	0.554	0.631	0.581	0.601	0.255	0.257	0.243	0.221	0.206	
NCI-H2342										0.424	0.383	0.386	0.403	0.463	0.742	0.705	0.676	0.514	0.285	
SK-MES-1					0.935	0.922	0.869	0.876	1.04	0.906	0.646	0.804	0.73	0.761	0.985	0.879	0.709	0.314	0.224	
SW 900										0.772	0.853	0.922	0.753	0.806	0.47	0.348	0.43	0.186	0.203	
